What was measured:
Cimex lectularius [1] = assay: three-dish, dual-choice olfactometer bioassay; type: in vivo
Text: Bioassays were run in dual-choice olfactometers and in large Plexiglass arenas (FIG. 1). Dual-choice olfactometers consisted of two lateral Pyrex® glass Petri dishes, connected to a central dish (all dishes 3×9 cm inner diameter) via a Pyrex® glass tube (2.5 cm long×2 cm inner diameter). The dishes in this olfactometer mimic the natural still-air shelters in which bed bugs spend the day. Prior to the start of bioassays, a disc of paper towelling (9 cm diameter) was placed into each dish and a strip of paper towelling (2.4×0.6 cm) was inserted into the connecting glass tubing to provide traction for walking bed bugs. In addition, a piece of filter paper (2×3 cm; Whatman) was placed into each lateral dish and covered with a piece of cardboard (2×2 cm) as a refuge for bioassay insects.
Treatment and control stimuli were randomly assigned to each lateral dish. Olfactometers were enclosed in opaque plastic bins to prevent light from entering and affecting the insects' response. For each replicate, a single 3rd, 4th or 5th instar C. lectularius nymph was released into the central chamber of the olfactometer, which was then covered with a glass plate to prevent escape. The single bed bugs in each olfactometer were then allowed to explore all chambers. Each insect was released into an olfactometer at the end of the 14-h photophase allowing it to explore the chambers during 10 h of darkness, and to come to rest in one of the shelters during 10 h of light. After this 20-h period, the insect's position within the olfactometer was recorded. Any insects not found in a lateral chamber were recorded as non-responders. All experimental replicates were run at 24±2° C. and 30-60% RH. Olfactometers were washed with Sparkleen detergent (Fisher Scientific Co, Pittsburgh, Pa., USA), and were oven-dried (Precision, Winchester, Va., USA) between each bioassay.
To determine whether a blend of the 15 bed bug feces volatiles that were identified in bed bug feces (see EXAMPLE 11) attracts bed bugs and thus contains one or more bed bug pheromone components, the synthetic blend (SB) was tested at a medium dose (50 μg; Experiment 45), a low dose (5 μg; Experiment 46), and a very low dose (0.5 μg; Experiment 47) for the response of bed bugs in three-dish, dual-choice olfactometers (see EXAMPLE 2, FIG. 1). At each dose tested, all components were formulated in equal amounts in mineral oil which was pipetted into the inverted lid of a 4-ml vial. The vial was then placed on top of the corrugated cardboard shelter (see FIG. 1) in the randomly assigned treatment dish of the olfactometer (see EXAMPLE 2). The control stimulus consisted of the same type of lid on the corrugated cardboard of the control dish of the olfactometer containing mineral oil without synthetic test chemicals.

Cimex lectularius [2] = assay: large Plexiglass arena bioassay with baited and control shelters; type: in vivo; conditions: adult males
Text: The large two-chamber Plexiglass arena (180 cm long×12 cm high×13 cm wide) was designed with a central divider (180 cm long×5.5 cm high) to accommodate two pieces of wood (162 cm long×3.8 cm wide×0.8 cm high), each piece for testing the response of a single bed bug to a pheromone-baited shelter or a control shelter (see insert in FIG. 1,b) which were randomly assigned to either end of the wood. […] For each replicate, a single bed bug was placed in the center of the wood piece just prior to the end of the 14-h photophase, and its position was scored the next morning after the onset of the photophase.
Experiments 68-75 also investigated the effect of the volatile pheromone components (VPCs) (E)-2-hexenal, (E)-2-octenal, dimethyl disulfide, dimethyl trisulfide and 2-hexanone, and the effect of the less-volatile pheromone component histamine (H), on attraction and arrestment of bed bugs. Treatment stimuli consisted of filter paper (4×2.2 cm) impregnated with H (2,000 μg) and covered with a piece of corrugated cardboard shelter (3×2.2 cm), and of VPCs formulated at a high dose (500 μg; Experiments 68-74) or a medium dose (50 μg; Experiment 75) in mineral oil (0.5 ml) and pipetted into the inverted lid of a 20-ml scintillation vial resting on top of the shelter (FIG. 1). Control stimuli were of identical design but the filter paper contained no H, and the mineral oil contained no VPCs.

bed bugs = assay: shelter traps in a heavily infested residential apartment (Room 106); type: in vivo, Cimex lectularius; conditions: 24-h periods; for Mean ± SE number insects in baited shelter: Exp. 76-79, paired shelters; for Mean (± SE) number insects in control shelter: Exp. 76-79, unbaited shelter paired with the baited shelter
Text: To determine whether bed bugs responded to synthetic pheromone lures not only in large arena laboratory bioassays but also in infested premises (residential apartments), we placed pheromone-baited shelter traps (see FIG. 1) in apartments with known or suspected bed bug infestations. […] Based on 24-hour trapping results in multiple apartments, we selected a single, heavily infested apartment (hereafter referred to as Room 106) for further testing of synthetic bed bug pheromone lures.
Replicates (n=15-20) of each experiment consisted of paired shelters placed against a wall or furniture, with approximately 30-cm spacing between paired shelters and >1 m spacing between shelter pairs. For each shelter pair within each experiment, pheromone and control treatments were randomly assigned, and placement of replicates was alternated between the two experiments of Set 1 and Set 2. Because not more than 10 shelter pairs could be accommodated in Room 106 at any time, experimental data were collected over several consecutive 24-h periods. Every morning at 9:00, shelters were collected from Room 106 and immediately placed into separate labelled zipper lock bags which were then put on dry ice to kill the bed bugs that had entered a shelter. Bed bugs in each shelter were later counted in the laboratory under a microscope, noting their developmental stage (1st, 2nd, 3rd, 4th instar, adult), sex (male, female), and evidence (or not) for blood feeding prior to entry into a shelter Immediately following the removal of bed bug shelters from Room 106 each morning, new pre-prepared shelters were pheromone-baited (treatment) or not (control) and their position within shelter pairs randomly assigned (see above), again alternating placement of shelter pairs between Experiments 76 and 77 (Set 1) and between Experiments 78 and 79 (Set 2).

[3] = baited shelter 1 vs unbaited shelter 2, VPCs 500 μg, histamine 2,000 μg

NCCc1c[nH]cn1 [H, histamine]
No. insects not responding (Cimex lectularius [1]; Exp. 23-37, nymphs, bait amounts in micrograms): 3
No. insects in control chamber (Cimex lectularius [1]; Exp. 23-37, nymphs, bait in the other chamber, amounts in micrograms): 10
No. insects in bait chamber (Cimex lectularius [1]; Exp. 23-37, nymphs, numbers in parentheses of the bait = amounts in micrograms): 35
arrestment response by form of histamine (in words) (Cimex lectularius [1]; Experiments 26-28, dimethylaminoethanol 20 μg and histamine 20 μg as base, salt or base and salt): only as a base elicits the bed bugs' arrestment response
bioactivity alone (in words) (Cimex lectularius [1]; Experiments 36-37, alone at 200 μg, nymphs): bioactive on its own
No. insects in shelter 2 (Cimex lectularius [2]; Exp. 72, H (2,000 μg) in shelter 2 vs VPC (500 μg) in shelter 1): 14
No. insects in shelter 2 (Cimex lectularius [2]; Exp. 74, H (2,000 μg) in shelter 2 vs VPC (500 μg) + H in shelter 1): 5
No. insects in shelter 2 (Cimex lectularius [2]; Exp. 75, H (2,000 μg) in shelter 2 vs VPC (50 μg) + H in shelter 1): 0
No. insects in shelter 1 (Cimex lectularius [2]; [3]): 12
No. insects not responding (Cimex lectularius [2]; [3]): 5
No. insects in shelter 2 (Cimex lectularius [2]; unbaited shelter 2, bait in shelter 1, VPCs 500 μg, histamine 2,000 μg): 1
No. insects in shelter 2 (Cimex lectularius [2]; unbaited shelter 2, bait in shelter 1, VPCs 500 μg, histamine 2,000 μg, listed as histamine): one
Mean ± SE number insects in baited shelter (bed bugs): 6.06 ± 1.28
Mean ± SE number insects in baited shelter (bed bugs; listed as histamine): 6.06
Mean (± SE) number insects in control shelter (bed bugs): 4.53 ± 1.8
Mean (± SE) number insects in control shelter (bed bugs; listed as histamine): 4.53

From US20160316750A1, “Compounds, Compositions and Methods for Attracting and/or Arresting Bed Bugs” (priority 2013, published 2016)
